From PubChem BioAssay AID248 (DTP/NCI, 2004)
Several values for one entry are separate records, joined by “and”; a condition that tells them apart may be missing. Identical values can stand only once. Toxic doses and inconclusive results are not listed. No stated cut-off is given here; in the data, active means T/C of 150% or more; inactive means T/C below 125%.

Test system: L1210 leukemia ip in BDF1 mice, survival T/C
Assay: NCI In Vivo Anticancer Drug Screen. Data for tumor model L1210 Leukemia (intraperitoneal) in B6D2F1 (BDF1) mice
Conditions: endpoint: mean survival time, higher = longer survival
In short: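 Tumor cells were implanted, animals were treated, and survival was followed. The result divides the treated measurement by the vehicle-control measurement.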

[1] = dose: 100.0 mg/kg/injection, schedule: Q01DX001 (ip), vehicle: other
[2] = dose: 200.0 mg/kg/injection, schedule: Q01DX001 (ip), vehicle: other
[3] = dose: 400.0 mg/kg/injection, schedule: Q01DX001 (ip), vehicle: other
[4] = dose: 100.0 mg/kg/injection, schedule: Q01DX009 (ip), vehicle: Klucel (hydroxypropylcellulose) (HPC)
[5] = dose: 200.0 mg/kg/injection, schedule: Q01DX009 (ip), vehicle: Klucel (hydroxypropylcellulose) (HPC)
[6] = dose: 400.0 mg/kg/injection, schedule: Q01DX009 (ip), vehicle: Klucel (hydroxypropylcellulose) (HPC)
[7] = dose: 100.0 mg/kg/injection, schedule: Q01DX001 (ip), vehicle: saline
[8] = dose: 200.0 mg/kg/injection, schedule: Q01DX001 (ip), vehicle: saline
[9] = dose: 400.0 mg/kg/injection, schedule: Q01DX001 (ip), vehicle: saline
[10] = dose: 50.0 mg/kg/injection, schedule: Q01DX009 (ip), vehicle: Klucel (hydroxypropylcellulose) (HPC)
[11] = dose: 100.0 mg/kg/injection, schedule: Q04DX003 (ip), vehicle: Klucel (hydroxypropylcellulose) (HPC)
[12] = dose: 200.0 mg/kg/injection, schedule: Q04DX003 (ip), vehicle: Klucel (hydroxypropylcellulose) (HPC)
[13] = dose: 100.0 mg/kg/injection, schedule: Q04DX002 (ip), vehicle: Klucel (hydroxypropylcellulose) (HPC)
[14] = dose: 400.0 mg/kg/injection, schedule: Q04DX003 (ip), vehicle: Klucel (hydroxypropylcellulose) (HPC)
[15] = dose: 100.0 mg/kg/injection, schedule: Q01DX001 (ip), vehicle: carboxymethylcellulose (CMC)
[16] = dose: 200.0 mg/kg/injection, schedule: Q01DX001 (ip), vehicle: carboxymethylcellulose (CMC)
[17] = dose: 50.0 mg/kg/injection, schedule: Q01DX009 (ip), vehicle: saline with Tween-80
[18] = dose: 100.0 mg/kg/injection, schedule: Q01DX009 (ip), vehicle: saline with Tween-80
[19] = dose: 100.0 mg/kg/injection, schedule: Q04DX003 (ip), vehicle: saline with Tween-80
[20] = dose: 200.0 mg/kg/injection, schedule: Q04DX003 (ip), vehicle: saline with Tween-80
[21] = dose: 400.0 mg/kg/injection, schedule: Q04DX003 (ip), vehicle: saline with Tween-80
[22] = dose: 200.0 mg/kg/injection, schedule: Q01DX009 (ip), vehicle: saline with Tween-80

Measured: T/C

Cc1ccccc1N1CCN(CCC(=O)c2cc3ccccc3o2)CC1
inactive: dose: 5.0 mg/kg/injection, schedule: Q01DX009 (ip), vehicle: saline with Tween-80 104 % of control | dose: 9.5 mg/kg/injection, schedule: Q04DX003 (ip), vehicle: saline with Tween-80 96 % of control | dose: 10.0 mg/kg/injection, schedule: Q01DX009 (ip), vehicle: saline with Tween-80 100 % of control | dose: 18.0 mg/kg/injection, schedule: Q01DX001 (ip), vehicle: saline with Tween-80 94 % of control | dose: 19.0 mg/kg/injection, schedule: Q04DX003 (ip), vehicle: saline with Tween-80 116 % of control | dose: 20.0 mg/kg/injection, schedule: Q01DX009 (ip), vehicle: saline with Tween-80 106 % of control | dose: 37.5 mg/kg/injection, schedule: Q01DX001 (ip), vehicle: saline with Tween-80 101 % of control

CCCCCCCCCCCCC(C(=O)O)C1C=CCC1 (stereo not drawn)
inactive: [1] 95 % of control | [2] 90 % of control | [3] 101 % of control

CCCCCCP(C)(=O)CCCCCC
inactive: dose: 100.0 mg/kg/injection, schedule: Q01DX001 (ip), vehicle: saline with Tween-80 99 % of control

Cc1ccc(S(=O)(=O)Nc2cc(Cl)c(I)c(Cl)c2)cc1
inactive: [4] 96 % of control | [5] 102 % of control | [6] 100 % of control

COc1cc(OC)c(/C=C/c2cnc3ccccc3n2)c(OC)c1
inactive: dose: 3.13 mg/kg/injection, schedule: Q04DX002 (ip), vehicle: saline with Tween-80 104 % of control | dose: 6.25 mg/kg/injection, schedule: Q04DX002 (ip), vehicle: saline with Tween-80 95 % of control | dose: 12.5 mg/kg/injection, schedule: Q04DX002 (ip), vehicle: saline with Tween-80 88 % of control | dose: 50.0 mg/kg/injection, schedule: Q04DX002 (ip), vehicle: saline with Tween-80 90 % of control

C/C=C(\Nc1ccc([N+](=O)[O-])cc1[N+](=O)[O-])C(=O)OC
inactive: [7] 101 % of control | [8] 98 % of control | [9] 101 % of control

CC1(C)N(C(=S)Nc2ccccc2)C1(C)C
inactive: [10] 106 % of control | dose: 50.0 mg/kg/injection, schedule: Q04DX003 (ip), vehicle: Klucel (hydroxypropylcellulose) (HPC) 92 % of control | [4] 95 % of control | [11] 103 % of control | [5] 92 % of control | [12] 102 % of control

COc1cc(C(=O)Cl)cc(OC)c1OC(C)=O
inactive: [7] 93 % of control | [8] 89 % of control | [9] 91 % of control

O=C(Cl)C12CC3CC(CC(C3)C1)C2
inactive: [13] 111 % of control | dose: 200.0 mg/kg/injection, schedule: Q04DX002 (ip), vehicle: Klucel (hydroxypropylcellulose) (HPC) 111 % of control | dose: 400.0 mg/kg/injection, schedule: Q04DX002 (ip), vehicle: Klucel (hydroxypropylcellulose) (HPC) 100 % of control

CCCCS(=O)(=O)CCCCCCl
inactive: [7] 105 % of control | [8] 104 % of control | [9] 104 % of control

NC(Cc1ccccc1Cl)C(=O)O (stereo not drawn)
inactive: [10] 102 % of control | dose: 75.0 mg/kg/injection, schedule: Q01DX001 (ip), vehicle: Klucel (hydroxypropylcellulose) (HPC) 86 % of control | [4] 102 % of control | dose: 150.0 mg/kg/injection, schedule: Q01DX001 (ip), vehicle: Klucel (hydroxypropylcellulose) (HPC) 99 % of control | [5] 102 % of control | dose: 300.0 mg/kg/injection, schedule: Q01DX001 (ip), vehicle: Klucel (hydroxypropylcellulose) (HPC) 96 % of control

CS(=O)(=O)OCC1CCCCO1 (stereo not drawn)
inactive: [4] 91 % of control | [11] 101 % of control | [5] 102 % of control | [12] 102 % of control | [6] 106 % of control | [14] 111 % of control

CN(C)c1ccc(/C=N\NC(=S)Nc2ccc3cn[nH]c3c2)cc1
inactive: dose: 50.0 mg/kg/injection, schedule: Q01DX001 (ip), vehicle: carboxymethylcellulose (CMC) 102 % of control | [15] 102 % of control | [16] 111 % of control

OCCC1(CCO)CCCCC1
inactive: dose: 25.0 mg/kg/injection, schedule: Q01DX009 (ip), vehicle: saline with Tween-80 99 % of control | dose: 25.0 mg/kg/injection, schedule: Q04DX003 (ip), vehicle: saline with Tween-80 114 % of control | [17] 95 % of control | dose: 50.0 mg/kg/injection, schedule: Q04DX003 (ip), vehicle: saline with Tween-80 104 % of control | [18] 95 % of control and 108 % of control

COC(=N)Cc1ccc(F)cc1
inactive: dose: 75.0 mg/kg/injection, schedule: Q01DX009 (ip), vehicle: saline with Tween-80 111 % of control | dose: 150.0 mg/kg/injection, schedule: Q01DX009 (ip), vehicle: saline with Tween-80 112 % of control | dose: 300.0 mg/kg/injection, schedule: Q01DX009 (ip), vehicle: saline with Tween-80 112 % of control

Nc1nc(N)c2ncn(C3OC(CO)C(O)C3O)c2n1 (stereo not drawn)
inactive: [7] 102 % of control | [8] 115 % of control

Cc1cc(C)c(C2CC3CCC2C3)cc1N (stereo not drawn)
inactive: dose: 25.0 mg/kg/injection, schedule: Q04DX002 (ip), vehicle: Klucel (hydroxypropylcellulose) (HPC) 100 % of control | dose: 50.0 mg/kg/injection, schedule: Q04DX002 (ip), vehicle: Klucel (hydroxypropylcellulose) (HPC) 100 % of control | [13] 100 % of control | [11] 90 % of control | dose: 200.0 mg/kg/injection, schedule: Q04DX002 (ip), vehicle: saline 96 % of control

N#CCC[P+](CCC#N)(CCC#N)CCCC[P+](CCC#N)(CCC#N)CCC#N
inactive: [19] 94 % of control | [20] 91 % of control | [21] 94 % of control

CCCC(C)c1ccc(N=NC2C(=O)c3ccccc3C2=O)cc1 (stereo not drawn)
inactive: dose: 50.0 mg/kg/injection, schedule: Q01DX001 (ip), vehicle: saline 100 % of control | [7] 94 % of control | [8] 94 % of control | [9] 103 % of control

CN(C)c1ccc(C(=S)c2ccc(N(C)C)nc2)cn1
inactive: [4] 102 % of control | [11] 98 % of control | [5] 88 % of control | [12] 106 % of control | [6] 98 % of control | [14] 104 % of control

Cc1cccc(S(=O)(=O)CS(=O)(=O)c2cccc(C)c2)c1
inactive: dose: 75.0 mg/kg/injection, schedule: Q01DX001 (ip), vehicle: carboxymethylcellulose (CMC) 102 % of control | dose: 150.0 mg/kg/injection, schedule: Q01DX001 (ip), vehicle: carboxymethylcellulose (CMC) 96 % of control | dose: 300.0 mg/kg/injection, schedule: Q01DX001 (ip), vehicle: carboxymethylcellulose (CMC) 91 % of control

c1ccc(P(c2ccccc2)N2CCN(P(c3ccccc3)c3ccccc3)CC2)cc1
inactive: dose: 100.0 mg/kg/injection, schedule: Q04DX002 (ip), vehicle: saline with Tween-80 96 % of control | dose: 200.0 mg/kg/injection, schedule: Q04DX002 (ip), vehicle: saline with Tween-80 93 % of control | dose: 400.0 mg/kg/injection, schedule: Q04DX002 (ip), vehicle: saline with Tween-80 104 % of control

O=C1C2(c3ccccc3)C(c3ccccc3)=C(c3ccccc3)C1(c1ccccc1)C1CC=CC12 (stereo not drawn)
inactive: [18] 98 % of control | [19] 96 % of control | [22] 100 % of control | [20] 104 % of control | [21] 96 % of control

Nc1ccc(F)cc1[N+](=O)[O-]
inactive: [10] 106 % of control | [4] 93 % of control | [11] 105 % of control | [5] 95 % of control | [12] 94 % of control | [6] 90 % of control | [14] 91 % of control

C[N+]1(N[P+](=O)NN2CCCCC2)CCCCC1 (stereo not drawn)
inactive: [15] 98 % of control | [16] 104 % of control

Cn1c(=O)cc(CC(=O)O)c2ccccc21
inactive: [1] 95 % of control | [2] 95 % of control | [3] 98 % of control

Nc1ncnc(N)c1NC(=O)c1cccc([N+](=O)[O-])c1
inactive: [11] 98 % of control | [12] 103 % of control | [14] 93 % of control

Cn1c(/C=C/c2ccccc2)c([N+](=O)[O-])c(=O)n(C)c1=O
inactive: [17] 106 % of control | [18] 98 % of control | [22] 98 % of control
